Patent US20100210558A1, “MINIGASTRIN AS A THERAPEUTIC AGENT” (priority 2007, published 2010)
Where no end group is shown, it is not given here.

Tested on: drug-resistant Mycobacterium tuberculosis
Conditions: 5 micrograms per ml

LEEEEEAYGWMDF-NH2 [Minigastrin I]
% inhibition: 0.0%
